Counter-ions that a name gives are not always drawn.
How the values were obtained:
[1] = system: rats; experiment: Lung function assay (forced expiratory maneuvers after ovalbumin challenge); type: in vivo; conditions: 5 hr before antigen challenge
Description: Two fasted Sprague Dawley rats were dosed orally at 10 mpk with compound in 0.4% HPMC vehicle. The dose volume was 5 ml/kg dose. Plasma was collected at 0.5, 1, 2, 3, 4, and 6 hr. Blood samples were collected with heparin, and the plasma was stored with EDTA.
Lung function was measured using a forced expiratory maneuvers technique. In this procedure, the rats were anesthetized and a tracheal catheter was inserted. The rats were placed inside a whole body plethysmograph that contained a breathing valve capable of separating inflations and deflations of the lungs. The lungs were then subject to forced inflation of the lungs to total lung capacity followed by rapid deflation to residual volume. Measurements of forced vital capacity and peak expiratory flow were used to measure the effects of antigen challenge and assess the inhibitory effects of the compound of formula I. The drug was admixed with lactose for intratracheal delivery and given directly into the trachea with a fine microsprayer 5 hr before the antigen challenge. Orally delivered compound was given in 0.4% methylcellulose vehicle 5 hr before the antigen challenge. Control animals received intratracheal lactose or methylcellulose, respectively. The antigen challenge consisted of aerosolized exposure for 30 min to 1% ovalbumin. Forced expiratory lung functions were measured 24 hr after the antigen (ovalbumin) exposure.

[2] = Physical properties of salts of Compound A (hygroscopicity, hydrate stability); type: physicochemical; conditions: solid salt
[3] = Rat PK assay; type: in vivo, Sprague Dawley rats; conditions: Sprague Dawley, plasma, 30 mg/kg, 30 mpk po
Description: Using the above test procedure, the following results were obtained: • tartrate salt: monkey AUC=30 ng.h/mL at 10 mpk po • xinafoate salt: monkey AUC=0 ng.h/mL at 10 mpk po Assay Protocol for Rat PK Assay:
[…] The dose volume was 5 ml/kg dose. Plasma was collected at 0.5, 1, 2, 3, 4, and 6 hr. Blood samples were collected with heparin, and the plasma was stored with EDTA.

[4] = system: inflammatory cells; experiment: Allergic Brown-Norway rat assay: inhibition of recruitment of inflammatory cells into the airways (BALF cell counts after OVA challenge); type: in vivo, Brown-Norway rats
Description: Assay Protocol for Allergic Brown-Norway Rats:
Inbred male BN rats weighing 150 to 200 g were obtained from Charles River Laboratory (Wilmington, Mass.). Prior to use, the animals were allowed food and water ad libitum. The test compounds were administered 5 h prior to antigen challenge either by oral or inhalational route, as detailed in the “delivery of test compounds” section.
Sensitization and Antigen Bronchoprovocation
The animals were divided into two main groups viz. an alum group and an antigen group. In the antigen group, animals were sensitized by an intra-peritoneal (i.p.) injection of 1 ml alum-precipitated antigen containing 20 μg of ovalbumin (OVA, grade III; Sigma chemical Co., St Louis, Mo.) and 8 mg of Al(OH)3 suspended in 0.9% saline vehicle. A booster injection of this alum-OVA mixture was given again 7 days later. Animals belonging to the alum group received injections containing alum only. Seven days after the second injection, animals were exposed to aerosolized antigen bronchoprovocation which was performed by placing the rats in an enclosed plexiglass chamber (21 liters) and exposing the rats to aerosolized OVA (1%) for 30 min. The aerosolized OVA was produced by an ultrasonic nebulizer (DeVilbiss, Somerset, Pa., USA; Model Ultra-Neb 99) at a flow rate of approximately 8 liters/min. […]

Compound: CCOC(=O)[C@@H]1C[C@@H](NC(=O)C2CC2)CN1C(=O)c1nc(-c2ccc(OC)c3nc(C(F)(F)F)ccc23)oc1[C@H](C)N [xinafoate salt, xinafoate salt of 1-[[5-(1(S)-aminoethyl)-2-[8-methoxy-2-(trifluoromethyl)5-quinolyl]-4-oxazolyl]carbonyl]-4(R)-[(cyclopropyl-carbonyl)amino]-L-proline, ethyl ester]
- inhibition of forced vital capacity (FVC) ([1]; 0.02 mpk it (intra-tracheal)): 54%
- inhibition of forced vital capacity (FVC) ([1]; 3 mpk po): 31%
- hygroscopicity [2]: non-hygroscopic
- AUC [3]: 350 ng·h/mL
- inhibition of inflammatory cells ([4]; 0.02 mpk, intra-tracheal dosing, 5 h prior to antigen challenge, allergic BN rats): 69%
- better inhibition of inflammatory cells via intra-trachea administration compared to oral administration ([4]; intra-trachea vs oral administration): 25 fold

Compound: fumarate
- stability of crystalline forms [2]: unstable hydrates
